Measured values: patent US20230041996A1, “CALCIUM-SENSING RECEPTOR AGONIST COMPOUND AND APPLICATION THEREOF” (BEIJING TUO JIE BIOPHARMACEUTICAL CO. LTD., priority 2019, published 2023)
Where two headings read alike, the source gives them in different places. Square brackets hold non-standard residues; d marks the D form. Peptide text beside a SMILES is read from it. * marks the point of attachment. dPhe(4-NO2) = N[C@H](Cc1ccc([N+](=O)[O-])cc1)C(=O)O; dPhe(4-Me) = Cc1ccc(C[C@@H](N)C(=O)O)cc1; Cys(free,S-linked) = N[C@@H](CS*)C(=O)O; d2Nal = N[C@H](Cc1ccc2ccccc2c1)C(=O)O; d(hPhe) = N[C@H](CCc1ccccc1)C(=O)O; dChg = N[C@@H](C(=O)O)C1CCCCC1; dTle = CC(C)(C)[C@@H](N)C(=O)O

Experiments:
[1] = test system: rat peritoneal mast cells; assay: In vitro histamine release in rat peritoneal mast cells (histamine ELISA); assay type: cell-based; conditions: test compound final concentration 10 μM, 15 min at 37° C., relative to PBS buffer (1.00)
Method: To evaluate the in vitro histamine release levels induced by some of the test example compounds, rat peritoneal mast cells were collected by lavaging rat peritoneum with a lavage buffer (cold HBSS+25 mM HEPES containing heparin 5 U/mL, pH 7.4). After collection, the cells were centrifuged, and the lavage buffer was discarded. The cells were resuspended and washed twice with a stimulation buffer (HBSS+25 mM HEPES+1 mM CaCl2), pH 7.4). The cells were plated at a density of 10^5 cell/well (200 μL/well) and incubated at 37° C. for 15 min with positive control compound 48/80 (final concentration: 4 μg/mL), test example compounds (final concentration: 10 μM) or vehicle control. The cells were centrifuged, and cell supernatant was collected and tested for histamine concentration according to LDN Histamine ELISA kit (BAE-1000) instructions.

[2] = molecular target: T1, human calcium-sensing receptor (CaSR) (Homo sapiens, UniProt P41180); assay: Agonist activity on human calcium-sensing receptor (IP-One HTRF in stably transfected HEK293/CaSR cells); assay type: cell-based
T1 construct: host or cells: HEK293
T1 sequence (P41180 20-1078): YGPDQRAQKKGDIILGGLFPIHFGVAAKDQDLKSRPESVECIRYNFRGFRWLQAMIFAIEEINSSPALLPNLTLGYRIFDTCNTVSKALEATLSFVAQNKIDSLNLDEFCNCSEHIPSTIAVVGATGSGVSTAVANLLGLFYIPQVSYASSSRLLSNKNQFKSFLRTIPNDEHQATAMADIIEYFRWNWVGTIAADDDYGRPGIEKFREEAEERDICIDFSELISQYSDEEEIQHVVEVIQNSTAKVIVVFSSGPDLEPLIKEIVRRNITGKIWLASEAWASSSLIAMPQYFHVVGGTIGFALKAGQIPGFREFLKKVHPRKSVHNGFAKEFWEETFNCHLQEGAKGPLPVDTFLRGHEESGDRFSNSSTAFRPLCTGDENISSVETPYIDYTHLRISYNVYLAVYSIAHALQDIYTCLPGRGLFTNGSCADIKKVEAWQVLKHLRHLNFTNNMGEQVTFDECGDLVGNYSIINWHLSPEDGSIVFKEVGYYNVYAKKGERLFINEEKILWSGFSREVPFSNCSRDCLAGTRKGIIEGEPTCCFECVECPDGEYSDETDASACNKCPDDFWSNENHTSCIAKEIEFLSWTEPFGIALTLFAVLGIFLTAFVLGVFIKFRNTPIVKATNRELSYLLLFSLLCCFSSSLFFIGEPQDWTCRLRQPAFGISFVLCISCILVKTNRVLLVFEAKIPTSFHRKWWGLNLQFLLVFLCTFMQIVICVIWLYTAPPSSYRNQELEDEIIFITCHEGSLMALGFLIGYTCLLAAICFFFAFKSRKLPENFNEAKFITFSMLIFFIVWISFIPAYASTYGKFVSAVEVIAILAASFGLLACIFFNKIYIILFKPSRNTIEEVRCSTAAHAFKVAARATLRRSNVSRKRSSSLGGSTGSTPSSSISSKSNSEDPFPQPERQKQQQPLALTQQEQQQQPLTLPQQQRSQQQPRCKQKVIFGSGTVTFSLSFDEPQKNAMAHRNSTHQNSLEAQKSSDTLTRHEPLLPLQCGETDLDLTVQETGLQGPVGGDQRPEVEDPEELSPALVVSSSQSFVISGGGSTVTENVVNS
Method: 3.1.1 Objective: The test example is intended to measure the agonist activity of compounds 1-38 on the human calcium-sensing receptor (CaSR).
Stably transfected HEK293/CaSR cells (source: Pharmaron) were cultured in a complete medium (composition: DMEM, high glucose+10% FBS+2 mM GlutaMAX+1× Penicillin-Streptomycin+200 μg/mL Hygromycin B) and incubated at 37° C./5% CO2 till 70%-90% cell confluence. The cells were digested with TrypLE, inoculated into 384-well cell culture plates, and cultured overnight at 37° C./5% CO2. After buffer exchange, stimulation buffer (HEPES 10 mM, MgCl2 0.5 mM, KCl 4.2 mM, NaCl 146 mM, glucose 5.5 mM, LiCl 50 mM, CaCl2 1.2 mM) and various concentrations of the test example compounds were added and incubated at 37° C. for 60 min. Production of IP-One in cells was detected according to the procedures in the Cisbio IP-One Tb kit instructions. The EC50 values of various test example compounds in influencing human calcium-sensing receptor was calculated by software after the raw data of the example compounds were collected, so as to evaluate the agonist activity of the example compounds on human calcium-sensing receptor.
HTRF signal was read by an EnVision detector with an excitation wavelength of 320 nm and emission wavelengths of 620 nm and 665 nm. The signal ratio (665 nm/620 nm×10,000) was calculated and fitted non-linearly to the sample concentration in GraphPad Prism 6 using a four-parameter equation to give EC50 values of the test example compounds 1-38.

[3] = HEK293/CaSR cells, IP-One production, 60 min at 37° C., CaCl2 1.2 mM, read-out: EC50 for calcium-sensing receptor

| SMILES | Relative fold of histamine release in vitro [1] | EC50 [2, 3] [µM] | EC50 [2] [µM] |
| --- | --- | --- | --- |
| CC(=O)N[C@H](CSSC[C@H](N)C(=O)O)C(=O)N[C@H](CCCNC(=N)N)C(=O)N[C@H](CCCNC(=N)N)C(=O)N[C@@H](C(=O)N[C@H](CCCNC(=N)N)C(=O)N[C@H](CO)C(=O)N[C@H](CCCNC(=N)N)C(N)=O)C(C)(C)C [Compound 37, Ac-c(C)-r-r-(D-Tle)-r-s-r-NH2] (Ac-[dC](Cys(free,S-linked))[dR][dR][dTle][dR][dS][dR]-NH2) | 2.23 | 15.4 |  |
| CC(=O)N[C@H](CSSC[C@H](N)C(=O)O)C(=O)N[C@H](CCCNC(=N)N)C(=O)N[C@H](CCCNC(=N)N)C(=O)N[C@@H](C(=O)N[C@H](CCCNC(=N)N)C(=O)NCC(=O)N[C@H](CCCNC(=N)N)C(N)=O)C(C)C [Compound 30, Ac-c(C)-r-r-v-r-G-r-NH2] (Ac-[dC](Cys(free,S-linked))[dR][dR][dV][dR]G[dR]-NH2) | 1.51 | 19.6 |  |
| CC(=O)N[C@H](CSSC[C@H](N)C(=O)O)C(=O)N[C@H](Cc1c[nH]c2ccccc12)C(=O)N[C@H](CCCNC(=N)N)C(=O)N[C@H](CCCNC(=N)N)C(=O)N[C@H](CCCNC(=N)N)C(=O)NCC(=O)N[C@H](CCCNC(=N)N)C(N)=O [Compound 9, Ac-c(C)-w-r-r-r-G-r-NH2] (Ac-[dC](Cys(free,S-linked))[dW][dR][dR][dR]G[dR]-NH2) |  | 3.16 |  |
| CC(=O)N[C@H](CSSC[C@H](N)C(=O)O)C(=O)N[C@H](CCCNC(=N)N)C(=O)N[C@H](CCCNC(=N)N)C(=O)N[C@H](Cc1ccc([N+](=O)[O-])cc1)C(=O)N[C@H](CCCNC(=N)N)C(=O)N[C@H](C)C(=O)N[C@H](CCCNC(=N)N)C(N)=O [Compound 14, Ac-c(C)-r-r-[D-Phe(4-NO2)]-r-a-r-NH2] (Ac-[dC](Cys(free,S-linked))[dR][dR][dPhe(4-NO2)][dR][dA][dR]-NH2) |  | 4.33 |  |
| CC(=O)N[C@H](CSSC[C@H](N)C(=O)O)C(=O)N[C@H](CCCNC(=N)N)C(=O)N[C@H](CCCNC(=N)N)C(=O)N[C@H](CCc1ccccc1)C(=O)N[C@H](CCCNC(=N)N)C(=O)N[C@H](C)C(=O)N[C@H](CCCNC(=N)N)C(N)=O [Compound 16, Ac-c(C)-r-r-(D-hPhe)-r-a-r-NH2] (Ac-[dC](Cys(free,S-linked))[dR][dR][d(hPhe)][dR][dA][dR]-NH2) | 2.94 | 2.37 |  |
| CC(=O)N[C@H](CSSC[C@H](N)C(=O)O)C(=O)N[C@H](CCCNC(=N)N)C(=O)N[C@H](CCCNC(=N)N)C(=O)N[C@H](Cc1ccc(O)cc1)C(=O)N[C@H](CCCNC(=N)N)C(=O)N[C@H](C)C(=O)N[C@H](CCCNC(=N)N)C(N)=O [Compound 24, Ac-c(C)-r-r-y-r-a-r-NH2] (Ac-[dC](Cys(free,S-linked))[dR][dR][dY][dR][dA][dR]-NH2) | 3.18 | 2.03 |  |
| CC(=O)N[C@H](CSSC[C@H](N)C(=O)O)C(=O)N[C@H](CCCNC(=N)N)C(=O)N[C@H](CCCNC(=N)N)C(=O)N[C@@H](C(=O)N[C@H](CCCNC(=N)N)C(=O)N[C@H](CO)C(=O)N[C@H](CCCNC(=N)N)C(N)=O)C1CCCCC1 [Compound 35, Ac-c(C)-r-r-(D-Chg)-r-s-r-NH2] (Ac-[dC](Cys(free,S-linked))[dR][dR][dChg][dR][dS][dR]-NH2) | 2.06 | 12.9 |  |
| CC(=O)N[C@H](CSSC[C@H](N)C(=O)O)C(=O)N[C@H](CCCNC(=N)N)C(=O)N[C@H](CCCNC(=N)N)C(=O)N[C@H](C)C(=O)N[C@H](CCCNC(=N)N)C(=O)N[C@H](C)C(=O)N[C@H](CCCNC(=N)N)C(N)=O [Etelcalcetide analogue, Ac-c(C)-r-r-a-r-a-r-NH2, reference compound] (Ac-[dC](Cys(free,S-linked))[dR][dR][dA][dR][dA][dR]-NH2) |  |  | 6.74 |
| CC(=O)N[C@H](CSSC[C@H](N)C(=O)O)C(=O)N[C@H](CCCNC(=N)N)C(=O)N[C@H](CCCNC(=N)N)C(=O)N[C@@H](C(=O)N[C@H](CCCNC(=N)N)C(=O)NCC(=O)N[C@H](CCCNC(=N)N)C(N)=O)C1CCCCC1 [Compound 36, Ac-c(C)-r-r-(D-Chg)-r-G-r-NH2] (Ac-[dC](Cys(free,S-linked))[dR][dR][dChg][dR]G[dR]-NH2) |  | 17.9 |  |
| CC(=O)N[C@H](CSSC[C@H](N)C(=O)O)C(=O)N[C@H](CCCNC(=N)N)C(=O)N[C@H](CCCNC(=N)N)C(=O)N[C@H](CCC(N)=O)C(=O)N[C@H](CCCNC(=N)N)C(=O)NCC(=O)N[C@H](CCCNC(=N)N)C(N)=O [Compound 23, Ac-c(C)-r-r-q-r-G-r-NH2] (Ac-[dC](Cys(free,S-linked))[dR][dR][dQ][dR]G[dR]-NH2) |  | 30.4 |  |
| CC(=O)N[C@H](CSSC[C@H](N)C(=O)O)C(=O)N[C@H](CCCNC(=N)N)C(=O)N[C@H](CCCNC(=N)N)C(=O)N[C@H](CCC(N)=O)C(=O)N[C@H](CCCNC(=N)N)C(=O)N[C@H](CO)C(=O)N[C@H](CCCNC(=N)N)C(N)=O [Compound 26, Ac-c(C)-r-r-q-r-s-r-NH2] (Ac-[dC](Cys(free,S-linked))[dR][dR][dQ][dR][dS][dR]-NH2) | 1.73 | 9.24 |  |
| CC(=O)N[C@H](CSSC[C@H](N)C(=O)O)C(=O)N[C@H](CCCNC(=N)N)C(=O)N[C@H](CCCNC(=N)N)C(=O)N[C@@H](C(=O)N[C@H](CCCNC(=N)N)C(=O)NCC(=O)N[C@H](CCCNC(=N)N)C(N)=O)C(C)(C)C [Compound 38, Ac-c(C)-r-r-(D-Tle)-r-G-r-NH2] (Ac-[dC](Cys(free,S-linked))[dR][dR][dTle][dR]G[dR]-NH2) |  | 18.7 |  |
| CC(=O)N[C@H](CSSC[C@H](N)C(=O)O)C(=O)N[C@H](CCCNC(=N)N)C(=O)N[C@H](CCCNC(=N)N)C(=O)N[C@H](Cc1c[nH]cn1)C(=O)N[C@H](CCCNC(=N)N)C(=O)NCC(=O)N[C@H](CCCNC(=N)N)C(N)=O [Compound 28, Ac-c(C)-r-r-h-r-G-r-NH2] (Ac-[dC](Cys(free,S-linked))[dR][dR][dH][dR]G[dR]-NH2) |  | 21.5 |  |
| CC(=O)N[C@H](CSSC[C@H](N)C(=O)O)C(=O)N[C@H](Cc1ccc(C)cc1)C(=O)N[C@H](CCCNC(=N)N)C(=O)N[C@H](CCCNC(=N)N)C(=O)N[C@H](CCCNC(=N)N)C(=O)N[C@H](C)C(=O)N[C@H](CCCNC(=N)N)C(N)=O [Compound 3, Ac-c(C)-[D-Phe(4-CH3)]-r-r-r-a-r-NH2] (Ac-[dC](Cys(free,S-linked))[dPhe(4-Me)][dR][dR][dR][dA][dR]-NH2) |  | 15.3 |  |
| CC(=O)N[C@H](CSSC[C@H](N)C(=O)O)C(=O)N[C@H](CCCNC(=N)N)C(=O)N[C@H](CCCNC(=N)N)C(=O)N[C@H](Cc1ccc2ccccc2c1)C(=O)N[C@H](CCCNC(=N)N)C(=O)N[C@H](C)C(=O)N[C@H](CCCNC(=N)N)C(N)=O [Compound 15, Ac-c(C)-r-r-(D-2-NaI)-r-a-r-NH2] (Ac-[dC](Cys(free,S-linked))[dR][dR][d2Nal][dR][dA][dR]-NH2) |  | 5.59 |  |
